Here are results for two compounds from patent US9469854B2, “Pharmaceutical composition for treating liver diseases” (Academia Sinica, priority 2014, dated 2016).

Data set [1] deals with hsa-miR-21-3p. The data set can be described thus: miRNA microarray profiling of berberine-treated HepG2 cells. The note with it: HepG2, 40 μM berberine, 2 h and 4 h vs control cells. The format is cell-based, human.
Protocol: The human HCC HepG2 cell line was cultured in Minimum Essential Medium Eagle (Sigma) supplemented with 10% fetal bovine serum (FBS) (Invitrogen), 2.2 g/L of sodium bicarbonate (Sigma), 0.1 mM of non-essential amino acids (Caisson), 1 mM of sodium pyruvate (Invitrogen), and 10 of ml/L penicillin-streptomycin-amphotericin solution (Biological Industries). Human HEK-293T cells were maintained in high-glucose Dulbecco's modified eagle medium (Invitrogen) supplemented with 10% FBS and 3.7 g/L of sodium bicarbonate (Sigma). Both cell lines were cultured at 37° C. and 5% CO2.
The miRNA profiling was performed using an Agilent human miRNA Microarray R14 V2 containing 866 human miRNAs. […] Microarrays were scanned following the Agilent microarray scanner protocol, and image analysis and quantification were performed using the Agilent Feature Extraction software (Agilent Technologies). […]
Data set [2] has as its system SPEBF2. The data set can be described thus: qRT-PCR mRNA expression in primary human hepatocytes. To be noted: PHH, 40 μM berberine, 4-8 h. The data set is classed as cell-based. The procedure: The primary human hepatocytes from Caucasian donors were purchased from Invitrogen and cultured following the manufacturer's instructions. The hepatocytes were thawed and transferred into cryopreserved hepatocytes recovery medium (CM7000, Invitrogen), centrifuging at room temperature, 100×g for 10 min. Then, the hepatocytes were diluted to seeding density with plating medium (CM3000, Invitrogen) and added into collagen I-coated plates (Invitrogen). These plates were incubated at 37° C. for 4-6 hours under 5% CO2 for forming a monolayer. Then, plating medium was replaced by overlay incubation medium (CM4000 and 0.35 mg/mL Geltrex™ Matrix, Invitrogen), and the incubation medium was replaced daily. In the following examples, hepatocytes form 3 to 4 donors were used for experiments.
A 50 mM stock solution of berberine chloride (Sigma-Aldrich) was prepared in dimethyl sulfoxide (DMSO). Cells were treated with 40 μM of berberine chloride or 0.08% DMSO as the control. For induction of lipid droplets formation in cultured cells, 200 μM of oleic acid (Sigma-Aldrich) was added into the culture medium for 24 h.
Total RNA was extracted using a TRIZOL reagent (Invitrogen) according to the manufacturer's protocol. The total RNA quantity was measured using a NanoDrop ND-1000 spectrophotometer (Nanodrop Technologies). […]

In data set [3] the test system is ACSM2A. The data set is described as above. The note with it: PHH, 40 μM berberine, 2-4 h. The data set is classed as cell-based. The procedure:
(§1) The primary human hepatocytes from Caucasian donors were purchased from Invitrogen and cultured following the manufacturer's instructions. The hepatocytes were thawed and transferred into cryopreserved hepatocytes recovery medium (CM7000, Invitrogen), centrifuging at room temperature, 100×g for 10 min. Then, the hepatocytes were diluted to seeding density with plating medium (CM3000, Invitrogen) and added into collagen I-coated plates (Invitrogen). These plates were incubated at 37° C. for 4-6 hours under 5% CO2 for forming a monolayer. Then, plating medium was replaced by overlay incubation medium (CM4000 and 0.35 mg/mL Geltrex™ Matrix, Invitrogen), and the incubation medium was replaced daily. In the following examples, hepatocytes form 3 to 4 donors were used for experiments. A 50 mM stock solution of berberine chloride (Sigma-Aldrich) was prepared in dimethyl sulfoxide (DMSO). Cells were treated with 40 μM of berberine chloride or 0.08% DMSO as the control. For induction of lipid droplets formation in cultured cells, 200 μM of oleic acid (Sigma-Aldrich) was added into the culture medium for 24 h. Total RNA was extracted using a TRIZOL reagent (Invitrogen) according to the manufacturer's protocol. The total RNA quantity was measured using a NanoDrop ND-1000 spectrophotometer (Nanodrop Technologies). The total RNA quality and integrity were assayed using an Agilent 2100 bioanalyzer with an RNA 6000 nano kit (Agilent Technologies). Total RNAs (1 μg) were reverse-transcribed into cDNA by using M-MuLV Reverse Transcriptase (Thermo) and Oligo(dT)12-18 primers (Invitrogen) according to the manufacturer's protocol. The cDNA were then used for a real-time PCR with a LightCycler 480 SYBR Green I Master (Roche) by using primers shown in the following Table 1. The gene expression levels were normalized to GAPDH levels.

In data set [4] the test system is NAMPT. Described as above. The data set is classed as cell-based. The note with it: PHH, 40 μM berberine, 4-8 h. The procedure:
as §1

In data set [5] the test system is IL6R. Described as above. The data set is classed as cell-based. The note with it: PHH, 40 μM berberine, 4-8 h. The procedure:
as §1

For data set [6], the system named is intracellular SAM. Briefly: Measurement of intracellular SAM concentration in HepG2 cells. The data set is classed as cell-based, human. The procedure:
[…] The intracellular SAM of 5×10^4 HepG2 cells pellet was resuspended in […] of an extraction solution (0.2% perchloric acid plus 0.08% (v/v) 2-mercaptoethanol in ddH2O). Cells were incubated at room temperature for 1 h and vortexed every 5 min. The suspension was centrifuged at 4° C. at 10000×g for 5 min, and then the supernatant was collected. SAM levels in the supernatants were quantified using the Bridge-It SAM fluorescence assay kit (Mediomics) and detected using SpectraMax plate reader (Molecular Devices) according to the manufacturer's instructions.

The test system of data set [7] is intracellular malonyl-CoA. The data set can be described thus: Measurement of intracellular malonyl-CoA concentration in HepG2 cells. The data set is classed as cell-based, human. The note with it: HepG2, 72-h mimic transfection. The procedure: After transfection with 50 nM of miR-21-3p mimic or the negative-control mimic for 72 h, the PHH cells and HepG2 cells were trypsinized. The intracellular malonyl-CoA concentration was measured using the malonyl-CoA ELISA Kit (MyBioSource) according to the manufacturer's instructions.

Data set [8] concerns HepG2 cells. The data set can be described thus: BrdU incorporation cell proliferation assay. The format is cell-based, human. The note with it: HepG2, mimic 24 h plus additional 24 h BrdU, vs NC mimic. The procedure: The HepG2 cells were seeded at a density of 1×10^4 cells per well in a 96-well culture plate the day before transfection. After transfection with 50 nM of hsa-miR-21-3p mimic or the negative-control mimic for 24 h, the cultured media were refreshed with complete media containing the BrdU reagent, and incubated for an additional 24 hour for BrdU incorporation. The BrdU incorporation was quantified by using the BrdU cell proliferation colorimetric ELISA kit (abcam) according to the manufacturer's protocol and detected using the MRX II microplate reader (DYNEX).

The test system of data set [9] is 3′ UTR sequence of DGAT2. The data set can be described thus: Reporter examination of miR-21-3p and DGAT2 3′ UTR (technology similar to Example 6). The data set is classed as cell-based, human. The procedure:
(§2) The HEK-293T and HepG2 cells were seeded at a density of 5×10^4 cells per well in a 24-well culture plate the day before transfection. The HEK-293T and HepG2 cells were tri-transfected with (1) any one of the above-mentioned pMIR-REPORT-3′ UTR construction (300 ng), (2) the control Renilla luciferase reporter plasmid pRL-TK from Promega (10 ng), and (3) 50 nM of hsa-miR-21-3p mimic or negative-control mimic by using the Lipofectamine 2000 transfection reagent (Invitrogen) according to the manufacturer's instructions. Luciferase assays were performed after transfection for 48 h by using the Dual Luciferase reporter assay kit (Promega) and the Paradigm detection platform (Beckman) according to the manufacturer's protocol. The firefly luciferase activity was normalized relative to the Renilla luciferase activity.

Data set [10] relates to 3′ UTR of ACACA. Briefly: Reporter examination of miR-21-3p and ACACA 3′ UTR (technology similar to Example 6). The note with it: data not shown. The format is cell-based, human. The procedure:
as §2

Turning to `COc1ccc2cc3[n+](cc2c1OC)CCc1cc2c(cc1-3)OCO2` [berberine], the “hsa-miR-21-3p expression increase (miRNA microarray)” value in data set [1] was found to be 4 fold. In data set [2], the “mRNA expression of SPEBF2” value is “decreases”. Besides, the “mRNA expression of ACSM2A” value in data set [3] is “considerably decreases”. Further, the “mRNA expression of NAMPT” value in data set [4] is reported as “increase”. In data set [5], the “mRNA expression of IL6R” value is given as “decreases”.
Regarding “hsa-miR-21-3p (CAACACCAGUCGAUGGGCUGU; listed as RNA, chemistry not given here) [miR-21-3p mimic]”, the “intracellular SAM contents increase” value in data set [6] (HepG2, mimic transfection 48 h vs NC mimic) turned out to be 1.6 fold; in data set [6] (HepG2, mimic transfection 72 h vs NC mimic), 3.0 fold. The “intracellular malonyl-CoA concentration decrease” value in data set [7] worked out at 1.6 fold. In data set [8], the “inhibition of cellular proliferation (BrdU incorporation)” value stood at 1.7 fold. Also, the “suppression of DGAT2 expression by pairing with 3′ UTR” value in data set [9] is on record as 1.4 fold. For the same compound, in data set [10], the “suppression of ACACA expression via 3′ UTR” value is “suppressed the expression of ACACA, but not though its 3′ UTR sequence”.
